Results on 8 molecules are retold here after patent US5519034A, “Tetraisoquinoline compounds which have useful pharmaceutical utility” (The Boots Company PLC, priority 1991, dated 1996).

The target in one test is T1, D1 dopamine receptors (Rattus norvegicus, UniProt P18901).
T1 construct: Striatal samples from the brains of male Charles River CD rats; from tissue; host or cells: striatum of male Charles River CD rats (washed membrane pellet)
As to the kind of experiment: D1 dopamine receptor binding: inhibition of tritiated SCH 23390 binding, rat striatal samples. Details: species or system rat (male Charles River CD rats). Conditions: rat striatum, tritiated SCH 23390, pH 7.4, 37° C., 30 minutes. The essentials:
(§1)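 Rat striatal membranes in Tris-HCl with NaCl, KCl, CaCl2, MgCl2. Filtration, scintillation counting; Ki from displacement IC50 via ligand KD, some D2 Ki estimated from single concentrations.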

For another test, the target named is T2, D2 dopamine receptors (Rattus norvegicus, UniProt P61169).
T2 construct: Striatal samples from the brains of male Charles River CD rats; from tissue; host or cells: striatum of male Charles River CD rats (washed membrane pellet)
As to the kind of experiment: D2 dopamine receptor binding: inhibition of tritiated (S)-sulpiride binding, rat striatal samples. Details: species or system rat (male Charles River CD rats). Conditions: for Ki: rat striatum, tritiated (S)-sulpiride; for Ki for D2 / Ki for D1: ratio to two significant figures. Summed up:
as §1

Setting [1] is: pH 7.7, 4° C., 40 minutes, > = from highest concentration which displaced ≤50% of the ligand, read-out: Ki for D2 binding.

Like-named read-outs stand apart in the source and are kept apart here. Some results are limits rather than exact numbers.

T1 sequence (P18901 whole entry): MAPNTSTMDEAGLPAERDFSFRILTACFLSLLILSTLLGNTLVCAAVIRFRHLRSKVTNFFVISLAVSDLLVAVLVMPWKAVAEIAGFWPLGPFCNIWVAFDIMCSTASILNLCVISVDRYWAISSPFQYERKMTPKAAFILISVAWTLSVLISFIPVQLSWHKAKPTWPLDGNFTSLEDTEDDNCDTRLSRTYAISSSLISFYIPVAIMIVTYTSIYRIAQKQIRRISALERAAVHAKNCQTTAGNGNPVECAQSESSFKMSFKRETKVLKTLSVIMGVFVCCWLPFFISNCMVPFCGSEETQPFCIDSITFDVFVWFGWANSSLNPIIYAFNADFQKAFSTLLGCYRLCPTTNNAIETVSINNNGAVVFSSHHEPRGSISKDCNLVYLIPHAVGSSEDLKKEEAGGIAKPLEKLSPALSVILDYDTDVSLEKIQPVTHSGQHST
T2 sequence (P61169 whole entry): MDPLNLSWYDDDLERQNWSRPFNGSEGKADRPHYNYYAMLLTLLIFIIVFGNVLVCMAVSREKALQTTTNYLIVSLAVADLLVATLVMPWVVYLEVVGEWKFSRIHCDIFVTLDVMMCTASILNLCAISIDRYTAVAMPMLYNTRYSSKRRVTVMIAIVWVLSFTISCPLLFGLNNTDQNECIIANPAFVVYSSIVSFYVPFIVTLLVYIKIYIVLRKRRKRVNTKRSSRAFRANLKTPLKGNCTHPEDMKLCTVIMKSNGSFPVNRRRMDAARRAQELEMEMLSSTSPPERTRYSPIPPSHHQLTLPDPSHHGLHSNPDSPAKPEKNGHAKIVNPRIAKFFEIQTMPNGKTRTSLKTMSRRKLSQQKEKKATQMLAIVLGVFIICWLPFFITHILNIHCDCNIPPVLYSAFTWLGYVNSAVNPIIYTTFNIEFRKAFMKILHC

As a reminder, the Ki is the dissociation constant of the complex between target and ligand, obtained from inhibition or displacement. Consider `COCCN1CCc2cc(OC)c(O)cc2C1C1(c2ccccc2Cl)CC1` (centres unmarked) [Example 75, 1-[1-(2-chlorophenyl)cyclopropyl]-7-hydroxy-6-methoxy-2-(2-methoxyethyl)-1,2,3,4-tetrahydroisoquinoline], for which the inhibitory constant (Ki) on D1 dopamine receptors was 0.15 µM; at D2 dopamine receptors (setting [1]) it was > 5 µM. Further, the “Ki for D2 / Ki for D1” value at D2 dopamine receptors was > 33.
The like results for `COc1cc2c(cc1O)C(C1(c3ccccc3Cl)CC1)N(CCO)CC2` (centres unmarked) [Example 76, 1-[1-(2-chlorophenyl)cyclopropyl]-7-hydroxy-2-(2-hydroxyethyl)-6-methoxy-1,2,3,4-tetrahydroisoquinoline] were, in that order, 0.06 µM, > 5 µM and > 83.
For `CN1CCc2cc(O)c(O)cc2C1C1(c2ccc(-c3ccccc3)cc2)CCC1` (centres unmarked) [Example 78, 6,7-dihydroxy-2-methyl-1-[1-(4-biphenylyl)cyclobutyl]-1,2,3,4-tetrahydroisoquinoline], the Ki on D1 dopamine receptors amounted to 0.094 µM; at D2 dopamine receptors (setting [1]), 0.55 µM. Besides, at D2 dopamine receptors, the “Ki for D2 / Ki for D1” value is 5.9.
With `Cc1cc2c(cc1O)C(C1(c3ccccc3Cl)CC1)N(C)CC2` (centres unmarked) [Example 79, 1-[1-(2-chlorophenyl)cyclopropyl]-7-hydroxy-2,6-dimethyl-1,2,3,4-tetrahydroisoquinoline], the Ki at D1 dopamine receptors is 0.0012 µM; on D2 dopamine receptors (setting [1]) it was 0.94 µM. Moreover, the “Ki for D2 / Ki for D1” value on D2 dopamine receptors is given as 780.
`CN1CCc2cc(F)c(O)cc2C1C1(c2ccc(Cl)cc2Cl)CC1` (centres unmarked) [Example 81, 1-[1-(2,4-dichlorophenyl)cyclopropyl]-6-fluoro-7-hydroxy-2-methyl-1,2,3,4-tetrahydroisoquinoline]: the inhibition constant Ki worked out at 0.0019 µM on D1 dopamine receptors and 0.33 µM at D2 dopamine receptors (setting [1]). At D2 dopamine receptors, the “Ki for D2 / Ki for D1” value turned out to be 170.
For `COc1cc2c(cc1O)C(C1(c3cccc4c3OCC4)CC1)N(C)CC2` (centres unmarked) [Example 82, 1-[1-(2,3-dihydrobenzo[b]furan-7-yl)cyclopropyl]-7-hydroxy-6-methoxy-2-methyl-1,2,3,4-tetrahydroisoquinoline] the same measures were 0.0018 µM, 4.9 µM and 2700.
As to `CN1CCc2cc(O)c(O)cc2C1C1(c2ccccc2C#N)CCC1` (centres unmarked) [Example 83, 1-[1-(2-cyanophenyl)cyclobutyl]-6,7-dihydroxy-2-methyl-1,2,3,4-tetrahydroisoquinoline], the Ki is 0.021 µM at D1 dopamine receptors and 6.6 µM at D2 dopamine receptors (estimated from single concentration data by Langmuir adsorption isotherm equation, read-out: Ki for D2 binding (marked E)).
In the case of `COc1cc2c(cc1O)C(C1(c3ccccc3Cl)CCCC1)N(C)CC2` (centres unmarked) [Example 84, 1-[1-(2-chlorophenyl)cyclopentyl]-7-hydroxy-6-methoxy-2-methyl-1,2,3,4-tetrahydroisoquinoline], the inhibition constant Ki amounted to 0.012 µM at D1 dopamine receptors and 5.1 µM on D2 dopamine receptors (setting [1]). In addition, the “Ki for D2 / Ki for D1” value on D2 dopamine receptors was 430.
